Reference: US8097733B2, “Pyrazole derivatives as 5-LO-inhibitors” (Pfizer Inc., priority 2007, dated 2012)

Tests used:
recombinant human 5-LOX = target: T1, recombinant human 5-LOX (Homo sapiens, UniProt P09917); experiment: Fluorescence Intensity 5-LOX Enzyme Assay; assay type: biochemical; settings: crude lysate of recombinant human 5-LOX; highest inhibitor concentration tested typically 25 μM
T1 sequence (P09917 1-674): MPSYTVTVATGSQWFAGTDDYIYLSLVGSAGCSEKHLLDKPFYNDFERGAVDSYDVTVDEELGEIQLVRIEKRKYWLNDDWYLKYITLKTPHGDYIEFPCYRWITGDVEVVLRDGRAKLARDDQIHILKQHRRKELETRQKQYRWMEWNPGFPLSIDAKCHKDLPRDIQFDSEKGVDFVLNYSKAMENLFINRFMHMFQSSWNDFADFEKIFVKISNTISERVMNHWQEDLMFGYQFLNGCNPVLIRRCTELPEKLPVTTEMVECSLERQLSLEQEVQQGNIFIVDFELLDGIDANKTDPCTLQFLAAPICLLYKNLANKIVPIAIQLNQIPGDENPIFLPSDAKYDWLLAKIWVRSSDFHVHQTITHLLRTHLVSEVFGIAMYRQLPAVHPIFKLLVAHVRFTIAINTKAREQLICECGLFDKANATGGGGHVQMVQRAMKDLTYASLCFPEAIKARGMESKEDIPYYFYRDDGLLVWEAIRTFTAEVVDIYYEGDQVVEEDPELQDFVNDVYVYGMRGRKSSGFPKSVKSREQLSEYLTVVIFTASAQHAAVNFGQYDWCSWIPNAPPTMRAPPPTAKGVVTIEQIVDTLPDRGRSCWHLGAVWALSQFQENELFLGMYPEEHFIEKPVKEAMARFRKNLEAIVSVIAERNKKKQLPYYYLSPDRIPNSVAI
How it was run: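 Crude lysate enzyme with H2DCFDA 10 μM (5 min dye pre-incubation), inhibitor pre-incubated 10 min; reaction started with 3 μM arachidonic acid plus 10 μM ATP in Tris pH 7.5, CaCl2, EDTA, 20 min at room temperature, acetonitrile stop. Fluorescein fluorescence; 7-point 4-parameter IC50, top 25 μM, 2.5% DMSO.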

[1] = system: eicosanoid production in the rat air pouch; experiment: Carrageenan-induced eicosanoid production in the rat air pouch; assay type: in vivo; settings: po, male Lewis rats, 3 mpk by gavage 1 hour prior to carrageenan
Method: Carrageenan-Induced Eicosanoid Production in the Rat Air Pouch:
Male Lewis rats (175-200 g), Charles River Laboratories, Wilmington, Mass.) were used in the study. Air pouches were produced by subcutaneous injection of 20 ml of sterile air into the intrascapular area of the back. Pouches were allowed to develop for 1 day. Animals (6 per group) were fasted with free access to water for 16 to 24 hours prior to drug administration. Drugs or vehicle were administered by gavage 1 hour prior to injection of 2 ml of a 1% suspension of carrageenan (FMC BioPolymer, Philadelphia, Pa., Cat. # GP209-NF) dissolved in saline into the pouch. At 3 hours post-carrageenan injection, 1 ml of 50 μg/ml calcium ionophore in saline (A23187, Sigma Chemical Co, St. Louis, M, Cat. #C-7522) was injected into the pouch and the pouch fluid collected 10 minutes later by lavage. The fluid was centrifuged at 3500 rpm for 10 minutes at 4° C., and the supernatants were collected for analysis. Leukotriene and prostaglandin levels were quantitated by ELISA according to the manufacturer's directions (Cayman Chemical Company, Ann Arbor, Mi).

[2] = system: human whole blood (leukotriene and prostaglandin levels); experiment: Eicosanoid production from human whole blood; assay type: cell-based; settings: human whole blood stimulated with calcium ionophore A23187 and arachidonic acid; ELISA
How it was run: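 Pooled heparinized whole blood from healthy or asthmatic donors was preincubated with compound for 10 min at room temperature, with 2.5% DMSO final. It was stimulated with calcium ionophore A23187 plus arachidonic acid (30 μM) in 60% ethanol for 15 min at 37 °C. Plasma leukotrienes and prostaglandins were measured by ELISA.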

[3] = Emesis evaluation in beagle dogs, IV infusion; assay type: in vivo; settings: 8-12 kg beagle dogs, loading dose followed by slow infusion
Method: The occurrence of these gastrointestinal symptoms after administration of these compounds limited their clinical utility. Experiments are undertaken to differentiate local gastrointestinal emetic stimuli during dissolution and absorption of an oral compound from emetic stimuli produced during systemic exposure through the bloodstream. […] These findings are observed after 8-12 kg purpose-bred beagle dogs are administered 4-(3-{[4-(1-methyl-1H-pyrazol-5-yl)phenyl]thio}phenyl)tetrahydro-2H-pyran-4-carboxamide by IV infusion, using a loading dose followed by a slow infusion to attain a peak blood level over 30 minutes to 1 hour in duration. More specifically, compounds are diluted in phosphate buffered saline to a concentration where 10 ml/kg total volume was administered through an intravenous catheter using an infusion pump, with approximately 90% of the total dose being delivered in the first 5 minutes, and the remaining dose administered over the next 25 minutes. Similar delivery methods to produce an exposure that approximates the systemic pharmacokinetic profile seen with oral delivery are anticipated to give similar results. […] For compounds of the invention, emesis, can for example be evaluated by administering the named compound orally at doses of 10 mg per kg, 100 mg per kg fasted, and 100 mg per kg fed, and evaluating emesis in dogs. […]

Structure (SMILES) | IC50 (recombinant human 5-LOX) [nM] | inhibition at 3 mg/kg [1] [%] | IC50 [2] [nM] | nausea and emesis [3]
Cn1nccc1-c1ccc(Sc2cccc(C3(C#N)CCOCC3)c2F)cc1 [Example 48, 4-(2-fluoro-3-{[4-(1-methyl-1H-pyrazol-6-yl)phenyl]thio}phenyl)tetrahydro-2H-pyran-4-carbonitrile] | 387 | 38 | 124 | 
CNC(=O)C1(c2cccc(Sc3ccc(-c4ccnn4C)cc3)c2Cl)CCOCC1 [Example 55, 4-(2-chloro-3-{[4-(1-methyl-1H-pyrazol-5-yl)phenyl]thio}phenyl)-N-methyltetrahydro-2H-pyran-4-carboxamide] | 357 | 64 | 1240 | 
CNC(=O)C1(c2cccc(Sc3ccc(-c4ccnn4C)cc3Cl)c2)CCOCC1 [Example 16, 4-(3-{[2-chloro-4-(1-methyl-1H-pyrazol-6-yl)phenyl]thio}phenyl)-N-methyltetrahydro-2H-pyran-4-carboxamide] | 67.9 | 0 | 331 | 
C[C@H]1C[C@@](C#N)(c2cccc(Sc3ccc(-c4ccnn4C)cc3)c2F)CCO1 [29(2), (2S,4R)-4-(2-fluoro-3-(4-(1-methyl-1H-pyrazol-5-yl)phenylthio)phenyl)-2-methyl-tetrahydro-2H-Pyran-4-carbonitrile] | 30 | 100 | 62.5 | 
Cn1nccc1C(=O)c1ccc(Sc2cccc(C3(C(N)=O)CCOCC3)c2)cc1F [Example 58, 4-[3-({3-fluoro-4-[(1-methyl-1H-pyrazol-5-yl)carbonyl]phenyl}thio)phenyl]tetrahydro-2H-pyran-4-carboxamide] | 156 | 0 | 1140 | 
C[C@H]1C[C@@](C(N)=O)(c2cc(F)cc(Sc3ccc(-c4ccnn4C)cc3)c2)CCO1 [Example 27, (2S,4R)-4-(3-fluoro-5-(4-(1-methyl-1H-pyrazol-5-yl)phenylthio)phenyl)-2-methyl-tetrahydro-2H-pyran-4-carboxamide] | 19.8 | 100 | 138 | 
Cn1nccc1Oc1ncc(Sc2cccc(C3(C(N)=O)CCOCC3)c2)cc1Cl [Example 41, 4-(3-(5-chloro-6-(1-methyl-1H-pyrazol-5-yloxy)pyridin-3-ylthio)phenyl)-tetrahydro-2H-pyran-4-carboxamide] | 277 | 98 | 405 | 
C[C@H]1C[C@@](C#N)(c2cc(F)cc(Sc3ccc(-c4ccnn4C)cc3)c2)CCO1 [27(2), (2S,4R)-4-(3-fluoro-5-(4-(1-methyl-1H-pyrazol-5-yl)phenylthio)phenyl)-2-methyl-tetrahydro-2H-pyran-4-carbonitrile] | 331 | 100 | 123 | 
Cn1nccc1-c1ccc(Sc2cccc(C3(C(N)=O)CCOCC3)c2)cc1 [4-(3-{[4-(1-methyl-1H-pyrazol-5-yl)phenyl]thio}phenyl)tetrahydro-2H-pyran-4-carboxamide] |  |  |  | produce nausea and emesis through systemic exposure
C[C@H]1C[C@@](C(N)=O)(c2cccc(Sc3ccc(-c4ccnn4C)cc3)c2F)CCO1 [Example 29, (2S,4R)-4-(2-fluoro-3-(4-(1-methyl-1H-pyrazol-5-yl)phenylthio)phenyl)-2-methyl-tetrahydro-2H-pyran-4-carboxamide] | 14.9 | 100 | 265 | 
C[C@H]1C[C@@](C#N)(c2ccc(F)c(Sc3ccc(-c4ccnn4C)cc3)c2)CCO1 [Example 24, (2S,4R)-4-(4-fluoro-4-(4-(1-methyl-1H-pyrazol-5-yl)phenylthio)phenyl)-2-methyl-tetrahydro-2H-pyran-4-carbonitrile] | 692 | 32 | 150 | 
Cn1nccc1-c1ccc(Sc2cc(C3(C(N)=O)CCOCC3)ccc2F)cc1 [Example 21, 4-(4-fluoro-3-(4-(1-methyl-1H-pyrazol-5-yl)phenylthio)phenyl)-tetrahydro-2H-pyran-4-carboxamide] | 567 | 96 | 859 | 
Cn1ncc(Cl)c1-c1ccc(Sc2cccc(C3(C(N)=O)CCOCC3)c2)cc1F [Example 56, 4-(3-{[4-(4-chloro-1-methyl-1H-pyrazol-5-yl)-3-fluorophenyl]thio}phenyl)tetrahydro-2H-pyran-4-carboxamide] | 43.2 | 62 | 472 | 
Cn1nccc1-c1ccc(Sc2cccc(C3(C(N)=O)CCOCC3)c2)cc1Cl [Example 1, 4-(3-{[3-chloro-4-(1-methyl-1H-pyrazol-5-yl)phenyl]thio}phenyl)tetrahydro-2H-pyran-4-carboxamide] | 89.7 | 50.5 | 76.5 | 
Cn1nccc1-c1ccc(Sc2cccc(C3(C(N)=O)CCOCC3)c2)c(Cl)c1 [Example 13, 4-(3-{[2-chloro-4-(1-methyl-1H-pyrazol-5-yl)phenyl]thio}phenyl)tetrahydro-2H-pyran-4-carboxamide] | 54 | 1 | 119 | 
